Experimental data from patent US9937235B2, “Lipidated peptides as anti-obesity agents” (USTAV ORGANICKE CHEMIE A BIOCHEMIE AKADEMIE VED CR, V.V.I, priority 2012, dated 2018).
Where a SMILES comes first, the peptide text is derived from it. Where no end group is shown, it is not given here. [ ]: non-standard residue; d: D form. The star is where a group is joined. Phe(3,4-Cl2) = N[C@@H](Cc1ccc(Cl)c(Cl)c1)C(=O)O; Palmitoyl = CCCCCCCCCCCCCCCC(=O)*; Myristoyl = CCCCCCCCCCCCCC(=O)*; Decanoyl = CCCCCCCCCC(=O)*; Nle = CCCC[C@H](N)C(=O)O; Octanoyl = CCCCCCCC(=O)*

Tested on: fasted C57BL/6 mice
Test: Food intake in fasted mice after SC administration
Format: in vivo, mouse
Details: fasted C57BL/6 mice, 5 mg/kg SC, 45 min
Description: Male C57BL/6 mice (An Lab, Prague 4) were bred in the accredited animal facility in the Institute of Organic Chemistry and Biochemistry, Czech Academy of Sciences, Prague, at the Institute of Molecular Genetics, Prague 4, at the temperature of 22±2° C. with access to food and water ad libitum. The day/night cycle was 12/12 hours (light turned on at 6:00 am). Animals were treated according to the Animal Protection Act (Act No. 246/1992). The males were fed standard chow diet St-1 (Mlýn Kocanda, Praha, Czech Republic) which contained 66% saccharides, 25% proteins and 9% lipids with a caloric value of 3.4 kcal/g.
The food was withdrawn 17 hours prior to injection of lipidated peptide and free access to water was maintained. The administration of saline, PrRP or lipidated analogs was performed either by SC injection at doses of 1-10 mg/kg (volume 0.2 ml/mouse), or by ICV using infusion pump (cannulae were inserted into the third brain ventricle 4 days before the experiment following the procedure of Maixnerová et al. (Maixnerová et al., 2011)). The single dose of peptide was 4 nmol/mouse (5 μl/mouse).
Fifteen minutes after the lipidated peptide administration, the mice were given pre-weighed food. The food was then weighed every 30 minutes for 5-10 hours. The administration of every dose was performed at least twice and one group of mice consisted of at least 6 mice. The results were presented as % of food intake as compared with the control group injected with saline.
Statistical evaluation was performed using program Graph-Pad Prism Software (San Diego, Calif., USA), and the one-way ANOVA with a subsequent Dunnettovým post-hoc test. The difference in food intake between mice injected with saline and mice injected with the examined peptide were considered statistically significant at P<0.05.

Compound | Food intake in mice (5 mg/kg SC) % saline-treated group (45 min) [%]
CCCCCCCCCCCCCCCC(=O)N[C@@H](CO)C(=O)N[C@@H](CCCNC(=N)N)C(=O)N[C@@H](C)C(=O)N[C@@H](Cc1c[nH]cn1)C(=O)N[C@@H](CCC(N)=O)C(=O)N[C@@H](Cc1c[nH]cn1)C(=O)N[C@@H](CO)C(=O)N[C@@H](CCCC)C(=O)N[C@@H](CCC(=O)O)C(=O)N[C@H](C(=O)N[C@@H](CCCNC(=N)N)C(=O)N[C@H](C(=O)N1CCC[C@H]1C(=O)N[C@@H](CC(=O)O)C(=O)N[C@H](C(=O)N[C@@H](CC(N)=O)C(=O)N1CCC[C@H]1C(=O)N[C@@H](C)C(=O)N[C@@H](Cc1c[nH]c2ccccc12)C(=O)N[C@@H](Cc1ccc(O)cc1)C(=O)N[C@H](C(=O)NCC(=O)N[C@@H](CCCNC(=N)N)C(=O)NCC(=O)N[C@H](C(=O)N[C@@H](CCCNC(=N)N)C(=O)N1CCC[C@H]1C(=O)N[C@H](C(=O)NCC(=O)N[C@@H](CCCNC(=N)N)C(=O)N[C@@H](Cc1ccc(Cl)c(Cl)c1)C(N)=O)C(C)C)[C@@H](C)CC)[C@@H](C)O)[C@@H](C)CC)[C@@H](C)O)[C@@H](C)O [Analog 26] (Palmitoyl-SRAHQHS[Nle]ETRTPDINPAWYTGRGIRPVGR[Phe(3,4-Cl2)]-NH2) | 5
CCCCCCCCCCCCCC(=O)N[C@@H](CO)C(=O)N[C@@H](CCCNC(=N)N)C(=O)N[C@H](C(=O)N[C@@H](Cc1c[nH]cn1)C(=O)N[C@@H](CCCNC(=N)N)C(=O)N[C@@H](Cc1c[nH]cn1)C(=O)N[C@@H](CO)C(=O)N[C@@H](CCSC)C(=O)N[C@@H](CCC(=O)O)C(=O)N[C@H](C(=O)N[C@@H](CCCNC(=N)N)C(=O)N[C@H](C(=O)N1CCC[C@H]1C(=O)N[C@@H](CC(=O)O)C(=O)N[C@H](C(=O)N[C@@H](CC(N)=O)C(=O)N1CCC[C@H]1C(=O)N[C@@H](C)C(=O)N[C@@H](Cc1c[nH]c2ccccc12)C(=O)N[C@@H](Cc1ccc(O)cc1)C(=O)N[C@@H](C)C(=O)N[C@@H](CO)C(=O)N[C@@H](CCCNC(=N)N)C(=O)NCC(=O)N[C@H](C(=O)N[C@@H](CCCNC(=N)N)C(=O)N1CCC[C@H]1C(=O)N[C@H](C(=O)NCC(=O)N[C@@H](CCCNC(=N)N)C(=O)N[C@@H](Cc1ccccc1)C(N)=O)C(C)C)[C@@H](C)CC)[C@@H](C)CC)[C@@H](C)O)[C@@H](C)CC)[C@@H](C)O [Analog 56] | 35
CCCCCCCCCCCCCC(=O)N[C@@H](CO)C(=O)N[C@@H](CCCNC(=N)N)C(=O)N[C@@H](C)C(=O)N[C@@H](Cc1c[nH]cn1)C(=O)N[C@@H](CCC(N)=O)C(=O)N[C@@H](Cc1c[nH]cn1)C(=O)N[C@@H](CO)C(=O)N[C@@H](CCCC)C(=O)N[C@@H](CCC(=O)O)C(=O)N[C@H](C(=O)N[C@@H](CCCNC(=N)N)C(=O)N[C@H](C(=O)N1CCC[C@H]1C(=O)N[C@@H](CC(=O)O)C(=O)N[C@H](C(=O)N[C@@H](CC(N)=O)C(=O)N1CCC[C@H]1C(=O)N[C@@H](C)C(=O)N[C@@H](Cc1c[nH]c2ccccc12)C(=O)N[C@@H](Cc1ccc(O)cc1)C(=O)N[C@H](C(=O)NCC(=O)N[C@@H](CCCNC(=N)N)C(=O)NCC(=O)N[C@H](C(=O)N[C@@H](CCCNC(=N)N)C(=O)N1CCC[C@H]1C(=O)N[C@H](C(=O)NCC(=O)N[C@@H](CCCNC(=N)N)C(=O)N[C@@H](Cc1ccccc1)C(N)=O)C(C)C)[C@@H](C)CC)[C@@H](C)O)[C@@H](C)CC)[C@@H](C)O)[C@@H](C)O [Analog 18] (Myristoyl-SRAHQHS[Nle]ETRTPDINPAWYTGRGIRPVGRF-NH2) | 3
CC[C@H](C)[C@H](NC(=O)CNC(=O)[C@H](CCCNC(=N)N)NC(=O)[C@H](CO)NC(=O)[C@H](C)NC(=O)[C@H](Cc1ccc(O)cc1)NC(=O)[C@H](Cc1c[nH]c2ccccc12)NC(=O)[C@H](C)NC(=O)[C@@H]1CCCN1C(=O)[C@H](CC(N)=O)NC(=O)[C@@H](NC(=O)[C@H](CC(=O)O)NC(=O)[C@@H]1CCCN1C(=O)[C@@H](NC(=O)[C@H](CCCNC(=N)N)NC(=O)[C@@H](NC(=O)[C@H](CCC(=O)O)NC(=O)[C@H](CCSC)NC(=O)[C@H](CO)NC(=O)[C@H](Cc1c[nH]cn1)NC(=O)[C@H](CCCNC(=N)N)NC(=O)[C@H](Cc1c[nH]cn1)NC(=O)[C@@H](NC(=O)[C@H](CCCNC(=N)N)NC(=O)[C@@H](N)CO)[C@@H](C)O)[C@@H](C)CC)[C@@H](C)O)[C@@H](C)CC)C(=O)N[C@@H](CCCNC(=N)N)C(=O)N1CCC[C@H]1C(=O)N[C@H](C(=O)NCC(=O)N[C@@H](CCCNC(=N)N)C(=O)N[C@@H](Cc1ccccc1)C(N)=O)C(C)C [Analog 50] | 100
TPDINPAWYASRGIRPVGRF-NH2 [Analog 51] | 100
CCCCCCCCCCCCCC(=O)N[C@H](Cc1ccccc1)C(=O)N[C@H](CCCNC(=N)N)C(=O)NCC(=O)N[C@H](C(=O)N1CCC[C@H]1C(=O)N[C@@H](CCCNC(=N)N)C(=O)N[C@H](C(=O)NCC(=O)N[C@@H](CCCNC(=N)N)C(=O)NCC(=O)N[C@H](C(=O)N[C@@H](Cc1ccc(O)cc1)C(=O)N[C@@H](Cc1c[nH]c2ccccc12)C(=O)N[C@@H](C)C(=O)N1CCC[C@H]1C(=O)N[C@@H](CC(N)=O)C(=O)N[C@H](C(=O)N[C@@H](CC(=O)O)C(=O)N1CCC[C@H]1C(=O)N[C@H](C(N)=O)[C@@H](C)O)[C@@H](C)CC)[C@@H](C)O)[C@@H](C)CC)C(C)C [Analog 37] (Myristoyl-[dF][dR]GVPRIGRGTYWAPNIDPT-NH2) | 100
CCCCCCCCCCCCCC(=O)N[C@@H](CO)C(=O)N[C@@H](CCCNC(=N)N)C(=O)N[C@@H](C)C(=O)N[C@@H](Cc1c[nH]cn1)C(=O)N[C@@H](CCC(N)=O)C(=O)N[C@@H](Cc1c[nH]cn1)C(=O)N[C@@H](CO)C(=O)N[C@@H](CCSC)C(=O)N[C@@H](CCC(=O)O)C(=O)N[C@H](C(=O)N[C@@H](CCCNC(=N)N)C(=O)N[C@H](C(=O)N1CCC[C@H]1C(=O)N[C@@H](CC(=O)O)C(=O)N[C@H](C(=O)N[C@@H](CC(N)=O)C(=O)N1CCC[C@H]1C(=O)N[C@@H](C)C(=O)N[C@@H](Cc1c[nH]c2ccccc12)C(=O)N[C@@H](Cc1ccc(O)cc1)C(=O)N[C@H](C(=O)NCC(=O)N[C@@H](CCCNC(=N)N)C(=O)NCC(=O)N[C@H](C(=O)N[C@@H](CCCNC(=N)N)C(=O)N1CCC[C@H]1C(=O)N[C@H](C(=O)NCC(=O)N[C@@H](CCCNC(=N)N)C(=O)N[C@@H](Cc1ccccc1)C(N)=O)C(C)C)[C@@H](C)CC)[C@@H](C)O)[C@@H](C)CC)[C@@H](C)O)[C@@H](C)O [Analog 60] (Myristoyl-SRAHQHSMETRTPDINPAWYTGRGIRPVGRF-NH2) | 20
CCCCCCCC(=O)N[C@@H](CO)C(=O)N[C@@H](CCCNC(=N)N)C(=O)N[C@@H](C)C(=O)N[C@@H](Cc1c[nH]cn1)C(=O)N[C@@H](CCC(N)=O)C(=O)N[C@@H](Cc1c[nH]cn1)C(=O)N[C@@H](CO)C(=O)N[C@@H](CCCC)C(=O)N[C@@H](CCC(=O)O)C(=O)N[C@H](C(=O)N[C@@H](CCCNC(=N)N)C(=O)N[C@H](C(=O)N1CCC[C@H]1C(=O)N[C@@H](CC(=O)O)C(=O)N[C@H](C(=O)N[C@@H](CC(N)=O)C(=O)N1CCC[C@H]1C(=O)N[C@@H](C)C(=O)N[C@@H](Cc1c[nH]c2ccccc12)C(=O)N[C@@H](Cc1ccc(O)cc1)C(=O)N[C@H](C(=O)NCC(=O)N[C@@H](CCCNC(=N)N)C(=O)NCC(=O)N[C@H](C(=O)N[C@@H](CCCNC(=N)N)C(=O)N1CCC[C@H]1C(=O)N[C@H](C(=O)NCC(=O)N[C@@H](CCCNC(=N)N)C(=O)N[C@@H](Cc1ccccc1)C(N)=O)C(C)C)[C@@H](C)CC)[C@@H](C)O)[C@@H](C)CC)[C@@H](C)O)[C@@H](C)O [Analog 15] (Octanoyl-SRAHQHS[Nle]ETRTPDINPAWYTGRGIRPVGRF-NH2) | 94
CCCCCCCCCC(=O)N[C@@H](CO)C(=O)N[C@@H](CCCNC(=N)N)C(=O)N[C@@H](C)C(=O)N[C@@H](Cc1c[nH]cn1)C(=O)N[C@@H](CCC(N)=O)C(=O)N[C@@H](Cc1c[nH]cn1)C(=O)N[C@@H](CO)C(=O)N[C@@H](CCCC)C(=O)N[C@@H](CCC(=O)O)C(=O)N[C@H](C(=O)N[C@@H](CCCNC(=N)N)C(=O)N[C@H](C(=O)N1CCC[C@H]1C(=O)N[C@@H](CC(=O)O)C(=O)N[C@H](C(=O)N[C@@H](CC(N)=O)C(=O)N1CCC[C@H]1C(=O)N[C@@H](C)C(=O)N[C@@H](Cc1c[nH]c2ccccc12)C(=O)N[C@@H](Cc1ccc(O)cc1)C(=O)N[C@H](C(=O)NCC(=O)N[C@@H](CCCNC(=N)N)C(=O)NCC(=O)N[C@H](C(=O)N[C@@H](CCCNC(=N)N)C(=O)N1CCC[C@H]1C(=O)N[C@H](C(=O)NCC(=O)N[C@@H](CCCNC(=N)N)C(=O)N[C@@H](Cc1ccccc1)C(N)=O)C(C)C)[C@@H](C)CC)[C@@H](C)O)[C@@H](C)CC)[C@@H](C)O)[C@@H](C)O [Analog 16] (Decanoyl-SRAHQHS[Nle]ETRTPDINPAWYTGRGIRPVGRF-NH2) | 57
